Measurements taken from US4510307A, “6-Quinazolinesulfonyl derivatives and process for preparation thereof” (Asahi Kasei Kogyo Kabushiki Kaisha, priority 1980, dated 1985).

Experiments:
[1] = system: mesenteric artery; assay: Relaxation of Mesenteric Artery (isolated rabbit mesenteric artery contracted with KCl); conditions: Oryctolagus cuniculus, concentration for 50% relaxation, KCl 15~20 mM contraction, read-out: Relaxation of Mesenteric Artery ED50
Procedure: When, for example, 1-[4-(N-methyl-N-cyclohexylamino)-6-quinazolinesulfonyl]-4-(2-ethoxy-2-phenylethyl)piperazine was added and a complete relaxation was designated 100%, the concentration which could bring about a relaxation of 50%, i.e., ED50 was 0.8 μM.
After a home bred rabbit of a Japanese species weighing about 3 Kg was subjected to bloodletting, resulting in death and then to abdominal incision, the mesenteric artery was taken out, cut into helicoids of 2 mm×25 mm and suspended in a 20 ml organ bath filled with a Krebs-Henseleit solution into which a mixed gas of 95% by volume of O2 and 5% by volume of CO2 was introduced and one end of the artery was connected with an isometric transducer. When a load of 1.5 g was applied to the artery, the contraction and the relaxation of the artery was recorded as a weight on the transducer (a product of Nippon Koden K.K., Japan, "FD Pickup TB-912T"). The relaxation of the mesenteric artery was observed by adding the 6-quinazolinesulfonyl derivatives and their pharmaceutically acceptable acid addition salts to the mesenteric artery at the condition of about one half of the maxinum contraction with KCl at a KCl concentrantion of 15~20 mM. When the complete relaxation of the mesenteric artery was designated 100%, the concentration of the 6-quinazolinesulfonyl derivatives and their pharmaceutically acceptable acid addition salts which brought about a relaxation of 50% is shown in Table 6.

[2] = system: vertebral artery; assay: Effect on blood flow volume of vertebral artery of dog; format: in vivo, dog of mixed breed; conditions: Canis lupus familiaris; 1 mg/Kg intravenous; anesthetized dog; read-out: Increased Blood Flow Volume in Vertebral Artery
Procedure: (§1) The effect of the 6-quinazolinesulfonyl derivatives and the pharmaceutically acceptable acid addition salts of this invention on the vasodilation of the femoral and vertebral arteries can be measured by anesthetizing a dog of mixed breed weighing 8 to 15 Kg by an intravenous administration of 35 mg/Kg of pentbarbital, providing an acute type probe (a product of Nippon Koden K.K., Japan) with the femoral and vertebral arteries, administering the 6-quinazolinesulfonyl derivatives and the pharmaceutically acceptable acid addition salts to the femoral vein through a polyethylene tube inserted into the femoral vein side chain and measuring the blood flow volume with an electromagnetic flowmeter (a product of Nippon Koden K.K., Japan, "MF-27"). For example, when 1 mg/Kg of 1-[4-(N-methyl-N-cyclohexylamino)-6-quinazolinesulfonyl]-4-(2-ethoxy-2- phenylethyl)piperazine was intravenously administered, the increased blood flow volume in the femoral artery was 33% and the increased blood flow volume in the vertebral artery was 59%.
(§2) The effect on the vasodilatation of the femoral and vertebral arteries was measured by anesthetizing a dog of mixed breed weighing 8 to 15 Kg by an intravenous administration of 35 mg/Kg of pentbarbital, providing an acute type probe (a product of Nippon Koden K.K., Japan) with the femoral and vertebral arteries, administering the 6-quinazolinesulfonyl derivatives and their pharmaceutically acceptable acid addition salts to the femoral vein through a polyethylene tube inserted into the femoral vein side chain and measuring the blood flow volume with an electromagnetic blood flowmeter (a product of Nippon Koden K.K., Japan, "MF-27").

[3] = system: human blood platelet cAMP PDE; assay: PDE inhibition, c-AMP-decomposing PDE of human blood platelet; format: biochemical; conditions: human blood platelet cAMP PDE specimen; read-out: PDE Inhibition I50, Human Blood Platelet (PII)
Source text: (§3) More specifically, from the results of the experiment using an enzyme specimen in accordance with the reports [Mol. Pharmacol., 15, 49 (1979) and Biochem. Biophys. […] The 6-quinazolinesulfonyl derivatives and the pharmaceutically acceptable acid addition salts have inhibited the decomposition due to the enzyme specimens of substrate c-AMP and guanosine-3',5'-monophosphate (abbreviated "c-GMP"). This means that the compounds of this invention can inhibit the decomposition of the c-AMP and maintain the c-AMP in tissue at a high concentration. In other words, the compounds of this invention are effective for the improvement and medical treatment of a disease accompanied by reduction in the c-AMP and a disease accompanied by infiltration of calcium into tissue, for example, the contraction and convulsion of vascular smooth muscle.
(§4) As the enzyme specimens, human blood platelet and hog cerebral cortex were partially purified in accordance with reports [Mol. Pharmacol., 15, 49 (1979) and Biochem. Biophys. Res. Comun., 84, 277 (1978)]. The effect of the 6-quinazolinesulfonyl derivatives and their pharmaceutically acceptable acid addition salts of this invention on the c-AMP-decomposing PDE and the calmodulin or calcium-dependent cyclic nucleotide PDE was examined under the conditions in accordance with the above described reports. […] The activity of the compounds of this invention is expressed by the concentration which is required to inhibit 50% of the decomposition of the c-AMP-decomposing PDE, i.e., I50 by μM.
*^1 The human blood platelet cAMP PDE specimen was employed.

[4] = Acute toxicity, intravenous administration in mice; conditions: mouse, in vivo, male ddY-strain mice
Procedure: Furthermore, when the 6-quinazolinesulfonyl derivatives and the pharmaceutically acceptable acid addition salts of this invention are intravenously and arterially administered for the above described purposes, any remarkable toxicity cannot be observed.
The acute toxicity of the 6-quinazolinesulfonyl derivatives and their pharmaceutically acceptable acid addition salts was measured by giving male ddY-strain mice an intravenous administration.

[5] = system: hog cerebral cortex calmodulin or calcium-dependent cyclic nucleotide PDE; assay: PDE inhibition, calmodulin or calcium-dependent cyclic nucleotide PDE of hog cerebral cortex; format: biochemical
Source text: as §3, §4
*^2 The enzyme activity was measured by using calmodulin and Ca^+
dependent specimens. The nonactivation was measured in the presence of
0.2 mM of EGTA, while the activation was measured in the presence of 0.2
mM of CaCl2 and 8 units of calmodulin.

[6] = system: femoral artery; assay: Effect on blood flow volume of femoral artery of dog; format: in vivo, dog of mixed breed; conditions: Canis lupus familiaris; 1 mg/Kg intravenous; anesthetized dog; read-out: Increased Blood Flow Volume in Femoral Artery
Procedure: as §1, §2

SMILES | EC50 [1] [µM] | other results
CCOC(CN1CCN(S(=O)(=O)c2ccc3ncnc(N)c3c2)CC1)c1ccccc1 (stereo not drawn) [Compound (1), 1-(4-amino-6-quinazolinesulfonyl)-4-(2-ethoxy-2-phenylethyl)piperazine] | 9.8 | –
CCOC(CN1CCN(S(=O)(=O)c2ccc3ncnc(N(C)C)c3c2)CC1)c1ccccc1 (stereo not drawn) [Compound (2), 1-(4-dimethylamino-6-quinazolinesulfonyl)-4-(2-ethoxy-2-phenylethyl)-piperazine] | 4.5 | –
CCOC(CN1CCN(S(=O)(=O)c2ccc3ncnc(N(CC)CC)c3c2)CC1)c1ccccc1 (stereo not drawn) [Compound (3), 1-(4-diethylamino-6-quinazolinesulfonyl)-4-(2-ethoxy-2-phenylethyl)-piperazine] | 5 | –
CCCCN(CCCC)c1ncnc2ccc(S(=O)(=O)N3CCN(CC(OCC)c4ccccc4)CC3)cc12 (stereo not drawn) [Compound (4), 1-(4-dibutylamino-6-quinazolinesulfonyl)-4-(2-ethoxy-2-phenylethyl)-piperazine] | 1.3 | change in vivo at 1 mg/kg [2]: 50%; IC50 [3]: 950 µM; LD50 [4]: 135 mg/kg; IC50 ([5]; activated: 0.2 mM CaCl2 and 8 units of calmodulin, read-out: PDE Inhibition I50, Hog Cerebral Cortex (PII), Activated): 370 µM; PDE Inhibition I50, Hog Cerebral Cortex (PII), Non-activated ([5]; non-activated: presence of 0.2 mM EGTA): not inhibited; change in vivo at 1 mg/kg [6]: 33%
COC(CN1CCN(S(=O)(=O)c2ccc3ncnc(N4CCCCC4)c3c2)CC1)c1ccccc1 (stereo not drawn) [Compound (5), 1-(4-piperidino-6-quinazolinesulfonyl)-4-(2-methoxy-2-phenylethyl)-piperazine] | 5.8 | –
CC(C)OC(CN1CCN(S(=O)(=O)c2ccc3ncnc(N4CCCCC4)c3c2)CC1)c1ccccc1 (stereo not drawn) [Compound (7), 1-(4-piperidino-6-quinazolinesulfonyl)-4-(2-isopropoxy-2-phenylethyl)-piperazine] | 2.2 | –
CC(C)COC(CN1CCN(S(=O)(=O)c2ccc3ncnc(N4CCCCC4)c3c2)CC1)c1ccccc1 (stereo not drawn) [Compound (8), 1-(4-piperidino-6-quinazolinesulfonyl)-4-(2-isobutoxy-2-phenylethyl)-piperazine] | 10.7 | –
CCOC(CN1CCN(S(=O)(=O)c2ccc3ncnc(N4CCOCC4)c3c2)CC1)c1ccccc1 (stereo not drawn) [Compound (14), 1-(4-morpholino-6-quinazolinesulfonyl)-4-(2-ethoxy-2-phenylethyl)-piperazine] | 9.5 | –
CCOC(CN1CCN(S(=O)(=O)c2ccc3ncnc(NC4CCCCC4)c3c2)CC1)c1ccccc1 (stereo not drawn) [Compound (15), 1-(4-cyclohexylamino-6-quinazolinesulfonyl)-4-(2-ethoxy-2-phenylethyl)-piperazine] | 1.6 | –
CCOC(CN1CCN(S(=O)(=O)c2ccc3ncnc(Nc4ccccc4)c3c2)CC1)c1ccccc1 (stereo not drawn) [Compound (16), 1-(4-anilino-6-quinazolinesulfonyl)-4-(2-ethoxy-2-phenylethyl)piperazine] | 2.7 | –
CCOC(CN1CCN(S(=O)(=O)c2ccc3ncnc(NCc4ccccc4)c3c2)CC1)c1ccccc1 (stereo not drawn) [Compound (17), 1-(4-benzylamino-6-quinazolinesulfonyl)-4-(2-ethoxy-2-phenylethyl)-4-(2-ethoxy-2-phenylethyl)piperazine] | 3.2 | –
CCOC(CN1CCN(S(=O)(=O)c2ccc3ncnc(N(C)C4CCCC4)c3c2)CC1)c1ccccc1 (stereo not drawn) [Compound (18), 1-[4-(N-methyl-N-cyclopentylamino)-6-quinazolinesulfonyl]-4-(2-ethoxy-2-phenylethyl)piperazine] | 1.4 | –
CCOC(CN1CCN(S(=O)(=O)c2ccc3ncnc(N(C)C4CCCCCC4)c3c2)CC1)c1ccccc1 (stereo not drawn) [Compound (20), 1-[4-(N-methyl-N-cycloheptylamino)-6-quinazolinesulfonyl]-4-(2-ethoxy-2-phenylethyl)piperazine] | 3.7 | –
CCOC(CN1CCN(S(=O)(=O)c2ccc3ncnc(N(CC(C)C)C4CCCCC4)c3c2)CC1)c1ccccc1 (stereo not drawn) [Compound (22), 1-[4-(N-isobutyl-N-cyclohexylamino)-6-quinazolinesulfonyl]-4-(2-ethoxy-2-phenylethyl)piperazine] | 2.5 | –
COC(CN1CCN(S(=O)(=O)c2ccc3ncnc(N(C)C4CCCCC4)c3c2)CC1)c1ccccc1 (stereo not drawn) [Compound (26), 1-[4-(N-methyl-N-cyclohexylamino)-6-quinazolinesulfonyl]-4-(2-methoxy-2-phenylethyl)piperazine] | 1.4 | –
CC(C)OC(CN1CCN(S(=O)(=O)c2ccc3ncnc(N(C)C4CCCCC4)c3c2)CC1)c1ccccc1 (stereo not drawn) [Compound (27), 1-[4-(N-methyl-N-cyclohexylamino)-6-quinazolinesulfonyl]-4-(2-isopropoxy-2-phenylethyl)piperazine] | 0.9 | –
CC(C)COC(CN1CCN(S(=O)(=O)c2ccc3ncnc(N(C)C4CCCCC4)c3c2)CC1)c1ccccc1 (stereo not drawn) [Compound (28), 1-[4-(N-methyl-N-cyclohexylamino)-6-quinazolinesulfonyl]-4-(2-isobutoxy-2-phenylethyl)piperazine] | 1.3 | –
NCCNS(=O)(=O)c1ccc2ncnc(N3CCCCC3)c2c1 [Compound (29), N-(2-aminoethyl)-4-piperidino-6-quinazolinesulfonamide] | 33 | –
NCCCNS(=O)(=O)c1ccc2ncnc(N3CCCCC3)c2c1 [Compound (30), N-(3-aminopropyl)-4-piperidino-6-quinazolinesulfonamide] | 30 | –
NCCCCCCCCCCNS(=O)(=O)c1ccc2ncnc(N3CCCCC3)c2c1 [Compound (33), N-(10-aminodecyl)-4-piperidino-6-quinazolinesulfonamide] | 34 | –
NCCCCNS(=O)(=O)c1ccc2ncnc(N3CCCC3)c2c1 [Compound (34), N-(4-aminobutyl)-4-(1-pyrrolidinyl)-6-quinazolinesulfonamide] | 27 | –
CN(C)c1ncnc2ccc(S(=O)(=O)NCCCCN)cc12 [Compound (35), N-(4-aminobutyl)-4-dimethylamino-6-quinazolinesulfonamide] | 54 | –
CCN(CC)c1ncnc2ccc(S(=O)(=O)NCCCCN)cc12 [Compound (36), N-(4-aminobutyl)-4-diethylamino-6-quinazolinesulfonamide] | 50 | –
CCCCCCN(CCCCCC)c1ncnc2ccc(S(=O)(=O)NCCCCN)cc12 [Compound (38), N-(4-aminobutyl)-4-dihexylamino-6-quinazolinesulfonamide] | 12 | –
